Laboratory results reported in US12653776B2, “Methods of treatment of cancer by continuous infusion of coenzyme Q10” (priority 2013, dated 2026).
Where two headings read alike, the source gives them in different places.

What was measured:
[1] = Procedure: In the Phase 1a portion of the trial, patients who meet eligibility parameters receive 2 consecutive 48-hour infusions of coenzyme Q10 twice weekly on Monday and Wednesday (i.e., Days 1, 3, 8, 10, 15, 17, 22, and 24), essentially receiving coenzyme Q10 treatment for 96 hours per week of each 28-day cycle. At each dose level of Arm 1 and Arm 2, patients are treated for either 8 hours at minimum of outpatient monitoring or inpatient monitoring for the first 24-hrs of the first infusion of Cycle 1. All other treatments are administered in an outpatient setting. Dose limiting toxicities are assessed during Cycle 1.
The study is a standard 3+3 dose escalation design with the dose escalated in successive cohorts of 3 to 6 patients each. Toxicity at each dose level is graded according to National Cancer Institute Common Terminology Criteria for Adverse Events (CTCAE v4.02). Safety oversight is provided by the Cohort Review Committee (CRC). The CRC reviews and confirms all DLTs and monitor safety throughout the study (including Arm 2).
The 2 doses are administered over 4 consecutive days, i.e., the first dose on Monday-Wednesday and the second dose on Wednesday-Friday of each week. The study drug is administered undiluted via a central venous access device and the infusion rate is controlled by a programmable ambulatory infusion pump such as the CADD Prizm VIP (model 6101) ambulatory pump.
At each dose level of Arm 1 and Arm 2, patients are treated for either 8 hours at minimum of outpatient monitoring or inpatient monitoring for the first 24-hrs of the first infusion of Cycle 1. Patients are monitored for dose-limiting toxicity (DLT) or an AE that requires prolonged hospitalization. If no reaction to coenzyme Q10 develops, the patient will be discharged.
For the second dose of each week (i.e., on Days 3, 10, 17, and 24 of the cycle) the total dose volume are given over 48 hours with no loading dose as indicated in Table 6 below. Coenzyme Q10 Nanosuspension for Injection Dose Cohorts (Arm 1; Monotherapy).

[2] = tested on: lung chloromas (MIA C51 clone); test: Lung chloroma rat model, survival; assay type: in vivo, rats; conditions: continuous infusion vs injection 3 times a day, 50 mg/kg per day
From the text: The effect of dosing schedule of coenzyme Q10 was also investigated in rats bearing liver or lung chloromas. Rats were transplanted with liver or lung clones of malignant chloromas derived from a stable myelogenous leukemia (chloroleukemia) cell line, MIA C51 (see. e.g., Jimenez and Yunis (1987) Science 238: 1278-1280). The clones have been selected to home to and form tumors in the liver or lungs, respectively. Rats were randomized to receive either no treatment, injection 3 times a day with 40 mg/mL (4%) coenzyme Q10, or continuous infusion of 40 mg/mL (4%) coenzyme Q10 via an implanted pump, to deliver for each regimen a total dose of 50 mg/kg body weight per day. […] For example, at Day 189 in the liver chloroma model, 45 of 50 rats were alive in the continuous infusion treatment group compared with 26 of 50 rats alive in the injection treatment group. All control animals were dead at Day 30.

[3] = in vivo
Procedure: The first-in-human Phase 1 study with coenzyme Q10 nanosuspension (40 mg/ml) was conducted in 50 patients with advanced solid tumors. The objectives were to assess the safety, maximum tolerated dose, PK and PD of coenzyme Q10, specifically a 4% coenzyme Q10 nanosuspension formulation (as described in WO 2011/112900, the entire contents of which are expressly incorporated herein by reference), administered as a 4-hour IV infusion 3 times weekly in 28-day cycles. […] Plasma concentration profiles and PK parameters were determined from blood samples collected pre-dose and at intervals to 48 hours post-dose.

[4] = combination with gemcitabine, Dose level 1 (50 mg/kg)

Question: What does the source list for coenzyme Q10?
Answer: safety issues ([1]; combination with 5-Fluorouracil, Dose level 1 (50 mg/kg)): No 5FU-related issued; dose level evaluation ([1]; combination with 5-Fluorouracil, Dose level 2 (66 mg/kg)): Dose level cleared; safety issues ([1]; combination with docetaxel, Dose level 1 (50 mg/kg)): No docetaxel-related issued; issues or DLTs ([1]; combination with docetaxel, Dose level 2 (66 mg/kg)): No issues or DLTs; issues or DLTs ([1]; combination with docetaxel, Dose level 3 (kg mg/kg), evaluation ongoing): No issues or DLTs; dose-limiting toxicity (DLT) [1, 4]: no DLT; thrombocytopenia (gemcitabine-related adverse event) [1, 4]: Mild to moderate thrombocytopenia; bleeding events ([1]; continuous infusion protocol): No bleeding events were reported; coagulation abnormalities ([1]; continuous infusion protocol with aggressive pre-loading or treatment with Vitamin K): minimal coagulation abnormalities; overall safety ([1]; current dose levels, continuous infusion): safe at the current levels; dose-limiting toxicity (DLT) ([1]; monotherapy Dose Level 1 (66 mg/kg), 9 subjects, grade 3 GGT): 1 DLT; dose-limiting toxicity (DLT) ([1]; monotherapy Dose Level 2 (88 mg/kg), 4 subjects): 0 DLT; dose-limiting toxicity (DLT) ([1]; monotherapy Dose Level 3 (110 mg/kg), 4 subjects, evaluation ongoing): 0 DLT; safety and tolerability ([1]; monotherapy and combination therapy, initial results): safe and well tolerated; triglycerides ([1]; no clinical significance): Transient elevation of triglycerides; adverse events with increased infusion duration ([1]; vs four hour infusion at higher rate, expected at the end of the ongoing study): decrease adverse events; effectiveness of continuous infusion regimen [2]: much more effective than the injection regimen; Tmax and Cmax ([3]; human): generally associated with the end of the infusion; AUC0-168 (estimated weekly) ([3]; human, 176 mg/kg): 68,787 μg*hr/mL; Cmax (estimated weekly) ([3]; human, 176 mg/kg): 1,558 μg/mL; AUC0-168 (estimated weekly) ([3]; human, 235 mg/kg): 74,640 μg*hr/mL; Cmax (estimated weekly) ([3]; human, 235 mg/kg): 1,592 μg/mL; AUC0-168 (estimated weekly) ([3]; human, 313 mg/kg): 125,953 μg*hr/mL; Cmax (estimated weekly) ([3]; human, 313 mg/kg): 2,198 μg/mL; t1/2 ([3]; human, iv): 2.18 to 18.0 h; accumulation with increasing duration of dosing [3]: no apparent accumulation; dose-proportionality ([3]; 22.5 mg/kg): dose-proportionality appeared linear
